Values quoted from earlier work, collected in US6776977B2, “Polypodal chelants for metallopharmaceuticals” (Bristol-Myers Squibb Pharma Company, priority 2001, dated 2004).

Settings: decomposition under acidic conditions

## O=C([O-])CN(CCN(CC(=O)[O-])CC(=O)[O-])CCN(CC(=O)[O-])CC(=O)[O-].[Gd+3] [Gd(DTPA)^2−]
  Kobs: 0.0012 s⁻¹
